In ChEMBL document CHEMBL1201862, “PubChem BioAssay data set” (2004):
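Protocol summary: plate cells (96-well), add compound at 5 concentrations, incubate 48 h, interpolate endpoints linearly. Abbreviation: GI50, concentration required for 50% inhibition of growth.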 The source made the active and inactive calls. No stated cut-off is given here; in the data, active = GI50 up to about 1.1 µM and inactive = higher.

Key:
Assay in all cases: NCI anticancer screen, dose series, 48 h
A498 = tested on: A498
MCF7 = tested on: MCF7
SF-295 = tested on: SF-295
NCI/ADR-RES = tested on: NCI/ADR-RES
BT-549 = tested on: BT-549
HL-60 = tested on: HL-60
RPMI-8226 = tested on: RPMI-8226
Hs-578T = tested on: Hs-578T
DU-145 = tested on: DU-145
SK-OV-3 = tested on: SK-OV-3
Malme-3M = tested on: Malme-3M
MOLT-4 = tested on: MOLT-4
OVCAR-4 = tested on: OVCAR-4
SNB-19 = tested on: SNB-19
NCI-H522 = tested on: NCI-H522
SNB-75 = tested on: SNB-75
HOP-92 = tested on: HOP-92
UO-31 = tested on: UO-31
HOP-62 = tested on: HOP-62
SR = tested on: SR

Compound	GI50 (A498)	GI50 (MCF7)	GI50 (SF-295)	GI50 (NCI/ADR-RES)	GI50 (BT-549)	GI50 (HL-60)	GI50 (RPMI-8226)	GI50 (Hs-578T)	GI50 (DU-145)	GI50 (SK-OV-3)	GI50 (Malme-3M)	GI50 (MOLT-4)	GI50 (OVCAR-4)	GI50 (SNB-19)	GI50 (NCI-H522)	GI50 (SNB-75)	GI50 (HOP-92)	GI50 (UO-31)	GI50 (HOP-62)	GI50 (SR)
CC(=O)O/C(=C1\C[C@H]2[C@@H]3CC=C4C[C@@H](OC(C)=O)CC[C@]4(C)[C@H]3CC[C@]2(C)C1=O)C(F)(F)F	19.3 µM (inactive)	5.86 µM (inactive)	16.2 µM (inactive)	7.16 µM (inactive)	12.2 µM (inactive)	3.51 µM (inactive)	4.08 µM (inactive)	7 µM (inactive)	9.95 µM (inactive)	20.1 µM (inactive)	3.56 µM (inactive)	2.59 µM (inactive)	11.4 µM (inactive)	17.8 µM (inactive)	3.18 µM (inactive)	21.9 µM (inactive)	8.24 µM (inactive)	12.1 µM (inactive)	14.1 µM (inactive)	2.88 µM (inactive)
CC(=O)NC1C(OCc2ccccc2)OC(CO)C(O)C1OC(C)C(=O)NC(C(=O)NC(CCC(=O)NCCCCNc1c2ccccc2nc2cccc([N+](=O)[O-])c12)C(N)=O)C(C)C (stereo not given)	1.84 µM (inactive)	0.499 µM (active)	4.99 µM (inactive)	49.2 µM (inactive)	5.97 µM (inactive)	1.65 µM (inactive)	0.76 µM (active)	8.57 µM (inactive)	2.55 µM (inactive)	8.73 µM (inactive)	1.82 µM (inactive)	0.515 µM (active)	1.24 µM (inactive)	4.84 µM (inactive)	0.186 µM (active)	2.7 µM (inactive)	1.28 µM (inactive)	2.89 µM (inactive)	3.15 µM (inactive)	0.178 µM (active)
CCOC(=O)C1C2C1C1C(C(=O)OCC)C21 (stereo not given)	> 100 µM (inactive)	51.3 µM (inactive)	> 100 µM (inactive)	> 100 µM (inactive)	> 100 µM (inactive)	63.8 µM (inactive)	50.4 µM (inactive)	> 100 µM (inactive)	> 100 µM (inactive)	> 100 µM (inactive)	> 100 µM (inactive)	> 100 µM (inactive)	> 100 µM (inactive)	> 100 µM (inactive)	> 100 µM (inactive)	> 100 µM (inactive)	> 100 µM (inactive)	> 100 µM (inactive)	> 100 µM (inactive)	52 µM (inactive)
COc1ccc2cc(NC(=O)N/N=C\c3ccc([N+](=O)[O-])cc3)ccc2c1	53 µM (inactive)	29.9 µM (inactive)	25.9 µM (inactive)	23.8 µM (inactive)	27.2 µM (inactive)	45 µM (inactive)	35.7 µM (inactive)	42.5 µM (inactive)	> 100 µM (inactive)	31 µM (inactive)	23.4 µM (inactive)	> 100 µM (inactive)	1.91 µM (inactive)	20.4 µM (inactive)	16 µM (inactive)	21.3 µM (inactive)	39.5 µM (inactive)	17.1 µM (inactive)	19.5 µM (inactive)	> 100 µM (inactive)
O=c1ccs[nH]1	46.8 µM (inactive)	8.36 µM (inactive)	6.17 µM (inactive)	17.7 µM (inactive)	16.8 µM (inactive)	3.13 µM (inactive)	2.7 µM (inactive)	22 µM (inactive)	40.5 µM (inactive)	26.3 µM (inactive)	8.91 µM (inactive)	4.53 µM (inactive)	16 µM (inactive)	32.1 µM (inactive)	0.42 µM (active)	16.9 µM (inactive)	16.7 µM (inactive)	7.21 µM (inactive)	17 µM (inactive)	2.54 µM (inactive)
